The test system of data set [1] is Human CYPs. Description: CYP inhibition panel in pooled human liver microsomes, overall statement. Format: in vitro ADME. To be noted: compared to C-analogue. On the procedure:
(§1) CYP inhibition: Co-incubation of compounds with P450 enzyme-selective substrates was performed using pooled human liver microsomes (Cat. No. H0610, Xenotech), to determine their potential to cause drug-drug interactions. The assay was performed in duplicate. The formation of acetaminophen, 7′-hydoxycoumarin, hydrobupropion, N-desethylamodiaquine, 4′-hydroxydiclofenac, 4′-hydroxymephenytoin, 1′-hydroxybufuralol, 6″-hydroxychlorzoxazone were quantified as markers for CYP1A2, CYP2A6, […], CYP2C8, CYP2C9, CYP2C19, […], CYP2E1, respectively. CYP3A4 inhibition was measured using 2 substrates, measuring the formation of […] (3A4-T), and 1′-hydroxymidazolam (3A4-M). The incubation was carried out in 96 deep well plates each well containing: 179 μL of the master solution (0.2 mg/mL microsomes plus CYP substrate (see below for final substrate concentration and incubation time for the different CYP assays)) in 100 mM phosphate buffer and 1 μL of the compound working solution or vehicle. The final concentrations of the compounds in the assay was 30 μM when using a single dose or 0.1, 0.3, 1, 3, 10 and 30 μM for a dose response.
(§2) The incubation plate was placed into a water bath and pre-warmed at 37° C. for 5 minutes before the reactions were started by the addition of 20 μL of 10 mM NADPH solution and incubated at 37° C. for the time listed above. […]

The test system of data set [2] is MOLM-13 cells. Description: MOLM-13 cell viability (Assay B), Cell Titer-Glo. Format: cell-based. Summed up:
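Cells at 1,000 per well in RPMI/10% FBS were exposed to compound (10E-5 to 6E-12 M), with or without 100 μM uridine, for 72 h. Viability was read by CellTiter-Glo luminescence. Duplicates were run, and potency was taken from two independent experiments.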

The nature of data set [3]: in vitro.
Data set [4] has as its target CYP1A2 (Homo sapiens (Human), UniProt P05177). Description: CYP inhibition in pooled human liver microsomes. Format: in vitro ADME. On the procedure:
as §1, §2

The nature of data set [5]: cytotoxicity in mock-infected A549 cells (MTS). Format: cell-based. To be noted: human.
Description: The lung cancer epithelial cell line A549 was obtained from the American Type Culture Collection (ATCC; Rockville, MD, USA) and cultured in MEM medium (Gibco BRL, Gaithersburg, MD, USA) with 10% fetal calf serum (FCS; Gibco BRL), 2 mM L-glutamine (Gibco BRL) and 0.075% sodium bicarbonate (Gibco BRL).
The anti-ZIKV and anti-DENV-2 activity in A549 cells was determined using a tetrazolium-based colorimetric cytopathic effect (CPE) reduction assay. […] A549 cells (1.5×10^4 cells in 100 μL cell culture medium) were seeded in 96-well flat bottom plates (TPP, Trasadingen, Switzerland) and incubated overnight to allow the cells to grow to confluency. Drug dilutions were prepared in culture medium where FCS concentration was decreased to 2% and threefold diluted in the plates (in duplicate). […] Three hours after MTS incubation, virus was inactivated using 0.5% Triton X-100 (Thermo Fisher Scientific, Waltham, MA, USA) and the absorbance was then recorded at 490 nm with a 96-well plate reader and compared with four cell control replicates (cells without virus and drugs) and four virus control wells (cells with virus but without drug). […] Absorbance was recorded using the VersaMax ELISA™ microplate reader (Molecular Devices) and analyzed with the Softmax Pro® software (Molecular Devices, Version 4.0). […]
The target of data set [6] is CYP3A4 (Homo sapiens (Human), UniProt P08684). Kind of data set: biochemical. Format: in vitro ADME. On the procedure: as §1
Chain of CYP3A4 (P08684 whole entry): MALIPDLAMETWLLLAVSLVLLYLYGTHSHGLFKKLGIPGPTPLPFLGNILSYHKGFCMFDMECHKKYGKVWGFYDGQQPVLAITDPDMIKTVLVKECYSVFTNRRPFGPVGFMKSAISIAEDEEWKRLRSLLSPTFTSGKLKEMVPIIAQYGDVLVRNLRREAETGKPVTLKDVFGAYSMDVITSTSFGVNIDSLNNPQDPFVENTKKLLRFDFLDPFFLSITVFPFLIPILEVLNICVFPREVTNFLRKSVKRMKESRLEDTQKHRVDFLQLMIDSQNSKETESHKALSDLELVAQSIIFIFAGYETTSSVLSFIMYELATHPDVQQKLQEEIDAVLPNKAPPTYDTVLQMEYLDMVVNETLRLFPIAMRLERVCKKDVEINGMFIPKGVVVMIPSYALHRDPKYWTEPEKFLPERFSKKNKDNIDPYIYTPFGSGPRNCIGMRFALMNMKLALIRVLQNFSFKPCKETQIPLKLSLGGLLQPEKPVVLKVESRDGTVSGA
(§3) The incubation plate was placed into a water bath and pre-warmed at 37° C. for 5 minutes before the reactions were started by the addition of 20 μL of 10 mM NADPH solution and incubated at 37° C. for the time listed above. The reaction was stopped by addition of 1.5 volumes (300 μL) of cold ACN containing 3% formic acid and 200 nM tolbutamide, 200 nM aprozolam and 200 nM labalol. The plate was centrifuged at 3,220 g for 50 minutes and then 200 μL of the supernatant was transferred to the analysis plate for LC/MS/MS analysis. The respective metabolite formation from each probe substrate was compared with that observed for the solvent control incubations.

The target of data set [7] is CYP2C9 (Homo sapiens (Human), UniProt P11712). Kind of data set: biochemical. Format: in vitro ADME. On the procedure:
as §1, §3

Data set [8] deals with CYP2C8 (Homo sapiens (Human), UniProt P10632). Description: biochemical. Format: in vitro ADME. On the procedure:
as §1, §3

The target of data set [9] is CYP2D6 (Homo sapiens (Human), UniProt P10635). Kind of data set: biochemical. Format: in vitro ADME. On the procedure: as §1, §3
Chain of CYP2D6 (P10635 whole entry): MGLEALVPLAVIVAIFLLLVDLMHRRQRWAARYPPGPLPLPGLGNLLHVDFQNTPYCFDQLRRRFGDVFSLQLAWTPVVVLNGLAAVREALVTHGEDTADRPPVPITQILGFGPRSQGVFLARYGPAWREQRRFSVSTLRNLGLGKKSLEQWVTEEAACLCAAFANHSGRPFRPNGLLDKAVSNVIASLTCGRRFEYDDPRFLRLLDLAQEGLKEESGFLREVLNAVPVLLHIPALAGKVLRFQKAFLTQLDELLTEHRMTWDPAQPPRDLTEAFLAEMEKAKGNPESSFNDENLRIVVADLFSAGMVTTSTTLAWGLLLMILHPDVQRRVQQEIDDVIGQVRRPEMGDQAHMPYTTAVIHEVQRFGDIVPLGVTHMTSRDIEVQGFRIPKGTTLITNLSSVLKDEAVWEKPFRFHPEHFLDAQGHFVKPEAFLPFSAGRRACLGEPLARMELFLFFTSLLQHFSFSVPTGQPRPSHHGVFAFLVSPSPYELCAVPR
Data set [10] concerns the target CYP2B6 (Homo sapiens (Human), UniProt P20813). Description: biochemical. Format: in vitro ADME. On the procedure: as §1, §3
The target of data set [11] is CYP2E1 (Homo sapiens (Human), UniProt P05181). Kind of data set: biochemical. Format: in vitro ADME. On the procedure:
as §1, §3

Data set [12] deals with CYP2C19 (Homo sapiens (Human), UniProt P33261). Description: biochemical. Format: in vitro ADME. On the procedure:
as §1, §3

Data set [13] deals with CYP2A6 (Homo sapiens (Human), UniProt P11509). Kind of data set: biochemical. Format: in vitro ADME. On the procedure: as §1, §3
Chain of CYP2A6 (P11509 whole entry): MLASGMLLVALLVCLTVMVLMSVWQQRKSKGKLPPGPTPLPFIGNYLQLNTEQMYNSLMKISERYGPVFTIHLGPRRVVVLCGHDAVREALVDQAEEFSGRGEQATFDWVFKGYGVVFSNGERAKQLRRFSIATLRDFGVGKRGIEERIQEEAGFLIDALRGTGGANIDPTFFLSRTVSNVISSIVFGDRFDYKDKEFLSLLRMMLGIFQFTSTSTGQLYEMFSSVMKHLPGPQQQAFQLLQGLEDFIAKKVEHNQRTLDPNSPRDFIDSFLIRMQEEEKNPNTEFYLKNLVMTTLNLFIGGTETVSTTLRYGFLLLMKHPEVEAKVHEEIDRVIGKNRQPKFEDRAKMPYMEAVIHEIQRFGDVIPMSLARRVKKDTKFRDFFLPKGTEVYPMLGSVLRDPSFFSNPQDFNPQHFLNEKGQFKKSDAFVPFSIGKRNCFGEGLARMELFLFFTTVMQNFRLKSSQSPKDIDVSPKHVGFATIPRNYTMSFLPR

A value given as a limit tells only on which side of the number the result lay.

Chain of CYP2C9 (P11712 whole entry): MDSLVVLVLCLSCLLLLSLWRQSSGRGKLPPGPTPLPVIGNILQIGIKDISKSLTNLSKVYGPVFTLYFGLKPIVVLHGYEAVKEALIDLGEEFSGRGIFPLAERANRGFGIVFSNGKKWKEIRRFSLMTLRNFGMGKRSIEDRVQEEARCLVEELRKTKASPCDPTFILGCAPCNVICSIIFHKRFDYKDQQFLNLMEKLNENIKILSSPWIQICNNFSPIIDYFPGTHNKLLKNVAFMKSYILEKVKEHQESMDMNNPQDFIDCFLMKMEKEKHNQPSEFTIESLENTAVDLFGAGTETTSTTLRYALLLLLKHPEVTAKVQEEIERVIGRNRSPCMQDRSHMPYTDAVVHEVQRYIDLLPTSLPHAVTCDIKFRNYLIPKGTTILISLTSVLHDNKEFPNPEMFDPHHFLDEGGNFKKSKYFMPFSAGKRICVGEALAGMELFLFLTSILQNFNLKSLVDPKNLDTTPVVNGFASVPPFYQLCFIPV
Chain of CYP2C19 (P33261 whole entry): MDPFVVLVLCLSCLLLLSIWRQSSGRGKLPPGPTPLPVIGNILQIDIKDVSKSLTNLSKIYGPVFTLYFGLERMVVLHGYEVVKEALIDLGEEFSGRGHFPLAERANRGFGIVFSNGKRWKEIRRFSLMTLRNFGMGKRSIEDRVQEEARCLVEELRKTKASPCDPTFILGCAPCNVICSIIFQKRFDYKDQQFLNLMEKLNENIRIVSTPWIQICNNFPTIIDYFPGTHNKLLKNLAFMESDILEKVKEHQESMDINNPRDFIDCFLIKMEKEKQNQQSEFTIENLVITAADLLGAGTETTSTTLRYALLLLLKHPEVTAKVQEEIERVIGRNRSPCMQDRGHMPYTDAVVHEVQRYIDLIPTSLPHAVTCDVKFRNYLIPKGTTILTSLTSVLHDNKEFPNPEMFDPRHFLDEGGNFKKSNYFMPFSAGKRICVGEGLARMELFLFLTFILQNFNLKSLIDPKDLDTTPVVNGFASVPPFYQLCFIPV
Chain of CYP2C8 (P10632 whole entry): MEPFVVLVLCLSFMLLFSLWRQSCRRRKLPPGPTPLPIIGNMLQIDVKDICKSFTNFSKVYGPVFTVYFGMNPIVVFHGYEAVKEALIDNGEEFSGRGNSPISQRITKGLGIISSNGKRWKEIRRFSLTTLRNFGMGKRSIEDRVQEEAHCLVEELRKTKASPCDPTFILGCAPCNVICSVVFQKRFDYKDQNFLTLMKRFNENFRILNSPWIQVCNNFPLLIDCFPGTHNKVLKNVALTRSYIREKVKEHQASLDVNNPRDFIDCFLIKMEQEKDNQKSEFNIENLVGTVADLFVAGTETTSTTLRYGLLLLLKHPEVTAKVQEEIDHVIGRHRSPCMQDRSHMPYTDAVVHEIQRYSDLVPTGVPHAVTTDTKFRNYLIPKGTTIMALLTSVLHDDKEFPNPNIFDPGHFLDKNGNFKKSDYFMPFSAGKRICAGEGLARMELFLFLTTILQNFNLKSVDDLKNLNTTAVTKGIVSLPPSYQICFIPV
Chain of CYP2B6 (P20813 whole entry): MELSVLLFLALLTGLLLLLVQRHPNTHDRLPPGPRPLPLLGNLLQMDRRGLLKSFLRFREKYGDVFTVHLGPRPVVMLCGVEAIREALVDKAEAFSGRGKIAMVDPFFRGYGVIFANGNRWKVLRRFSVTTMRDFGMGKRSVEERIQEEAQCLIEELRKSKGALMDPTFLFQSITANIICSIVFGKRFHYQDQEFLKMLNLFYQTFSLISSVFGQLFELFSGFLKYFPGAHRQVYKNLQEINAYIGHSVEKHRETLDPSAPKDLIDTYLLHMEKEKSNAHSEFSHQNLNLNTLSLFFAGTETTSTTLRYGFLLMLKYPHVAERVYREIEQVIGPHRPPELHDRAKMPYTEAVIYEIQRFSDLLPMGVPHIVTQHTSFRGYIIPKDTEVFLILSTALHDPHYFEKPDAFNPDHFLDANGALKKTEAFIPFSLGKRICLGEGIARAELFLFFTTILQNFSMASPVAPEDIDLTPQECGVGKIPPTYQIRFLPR
Chain of CYP1A2 (P05177 whole entry): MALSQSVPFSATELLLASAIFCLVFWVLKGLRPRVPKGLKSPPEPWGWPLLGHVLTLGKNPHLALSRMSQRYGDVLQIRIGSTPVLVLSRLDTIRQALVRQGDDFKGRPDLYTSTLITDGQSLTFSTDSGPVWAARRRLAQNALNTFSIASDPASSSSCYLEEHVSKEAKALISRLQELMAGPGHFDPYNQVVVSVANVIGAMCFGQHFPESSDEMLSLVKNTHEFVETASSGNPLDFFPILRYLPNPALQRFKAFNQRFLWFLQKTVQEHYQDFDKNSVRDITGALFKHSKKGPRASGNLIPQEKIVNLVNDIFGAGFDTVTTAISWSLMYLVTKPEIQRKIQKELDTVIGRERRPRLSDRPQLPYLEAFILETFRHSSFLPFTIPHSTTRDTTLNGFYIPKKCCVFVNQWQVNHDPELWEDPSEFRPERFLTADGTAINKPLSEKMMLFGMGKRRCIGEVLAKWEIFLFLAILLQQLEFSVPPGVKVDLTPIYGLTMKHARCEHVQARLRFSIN
Chain of CYP2E1 (P05181 whole entry): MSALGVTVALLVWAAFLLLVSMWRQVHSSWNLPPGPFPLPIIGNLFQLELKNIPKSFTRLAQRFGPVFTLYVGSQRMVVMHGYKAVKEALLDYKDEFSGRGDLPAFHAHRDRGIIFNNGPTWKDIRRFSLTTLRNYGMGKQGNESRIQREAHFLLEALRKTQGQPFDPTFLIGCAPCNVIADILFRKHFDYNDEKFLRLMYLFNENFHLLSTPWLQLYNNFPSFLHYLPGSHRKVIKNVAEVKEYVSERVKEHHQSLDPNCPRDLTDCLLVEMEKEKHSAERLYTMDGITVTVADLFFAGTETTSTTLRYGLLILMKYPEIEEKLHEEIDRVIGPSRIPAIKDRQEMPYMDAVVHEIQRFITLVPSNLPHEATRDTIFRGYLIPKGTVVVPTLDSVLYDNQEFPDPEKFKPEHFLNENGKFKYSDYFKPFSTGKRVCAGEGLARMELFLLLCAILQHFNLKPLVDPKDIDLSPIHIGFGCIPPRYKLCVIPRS

For `COc1ccc(F)c(-n2ncc3c2COC[C@H]3NC(=O)c2ncn3c2CCCC3)c1Cl` (single isomer, unassigned) [Ex-9], the “inhibition of human CYPs” value in data set [1] was “No Inhibition”. In addition, the IC50 was less than 0.01 µM in data set [2] (Homo sapiens, MOLM-13, 72 hours, bins ≥10 nM-<100 nM and <10 nM, read-out: IC50 MOLM13 inhibition activity); more than 30 µM in data set [4]; more than 30 µM in data set [6] (IC50 CYP3A4-M, substrate Midozolam); more than 30 µM in data set [6] (IC50 CYP3A4-T, substrate Testosterone); more than 30 µM in data set [7]; more than 30 µM in data set [8]. Also, the 50% inhibitory concentration (IC50) in [9], in data set [10], in data set [11], in [12] and in data set [13] was more than 30 µM each time. The “MOLM13 cell growth and/or viability (FIG. 2)” value in data set [2] (absence of uridine) is reported as “reduce MOLM13 cell growth and/or viability”. The “effect on MOLM13 cell growth and/or viability on addition of excess uridine (FIG. 2)” value in data set [2] (presence of 100 μM uridine) is “largely prevented”. For the same compound, the HLM % remaining in data set [3] (% remaining at 60 min, 1 μM) is reported as 100%. The same compound had a half-life at 1 μM in data set [3] (both, human, pooled liver microsomes) of more than 6.08 h. In data set [5], this compound yielded a CC50 of 3.65 ± 0.1 µM.
